The results in this text go back to patent US20250320213A1, “Nitrogen-Containing Heterocyclic Compounds” (Pfizer Inc., priority 2024, published 2025).

Assay [1] concerns CCL17 secretion in peripheral human whole blood. The assay is described as follows: Human Whole Blood (HWB) CCL17 TR-FRET Assay (IL-13 stimulated CCL17 secretion). The conditions noted are these: human whole blood. It counts as cell-based. Summed up:
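TR-FRET sandwich immunoassay (665/615 nm ratio) read CCL17 in serum from heparinized whole blood after 16 h RT detection. Blood was exposed to compound for 2 h at 37 °C, then to 10 ng/mL IL-13 (final) for 48 h. IC50 from 11-point, 3-fold titrations in duplicate.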
Background: TR-FRET usually uses a lanthanide donor and a delayed reading to cut background.

Assay [2] addresses T1, STAT6 (Homo sapiens, UniProt P42226).
T1 construct: stably transfected HaCaT keratinocyte cell line, which expresses NanoLuc luciferase reporter gene under the transcriptional control of the STAT6 responsive promoter; endogenous in cells; host or cells: HaCaT keratinocyte reporter cell line (stably transfected with a NanoLuc reporter)
T1 sequence (P42226 1-847): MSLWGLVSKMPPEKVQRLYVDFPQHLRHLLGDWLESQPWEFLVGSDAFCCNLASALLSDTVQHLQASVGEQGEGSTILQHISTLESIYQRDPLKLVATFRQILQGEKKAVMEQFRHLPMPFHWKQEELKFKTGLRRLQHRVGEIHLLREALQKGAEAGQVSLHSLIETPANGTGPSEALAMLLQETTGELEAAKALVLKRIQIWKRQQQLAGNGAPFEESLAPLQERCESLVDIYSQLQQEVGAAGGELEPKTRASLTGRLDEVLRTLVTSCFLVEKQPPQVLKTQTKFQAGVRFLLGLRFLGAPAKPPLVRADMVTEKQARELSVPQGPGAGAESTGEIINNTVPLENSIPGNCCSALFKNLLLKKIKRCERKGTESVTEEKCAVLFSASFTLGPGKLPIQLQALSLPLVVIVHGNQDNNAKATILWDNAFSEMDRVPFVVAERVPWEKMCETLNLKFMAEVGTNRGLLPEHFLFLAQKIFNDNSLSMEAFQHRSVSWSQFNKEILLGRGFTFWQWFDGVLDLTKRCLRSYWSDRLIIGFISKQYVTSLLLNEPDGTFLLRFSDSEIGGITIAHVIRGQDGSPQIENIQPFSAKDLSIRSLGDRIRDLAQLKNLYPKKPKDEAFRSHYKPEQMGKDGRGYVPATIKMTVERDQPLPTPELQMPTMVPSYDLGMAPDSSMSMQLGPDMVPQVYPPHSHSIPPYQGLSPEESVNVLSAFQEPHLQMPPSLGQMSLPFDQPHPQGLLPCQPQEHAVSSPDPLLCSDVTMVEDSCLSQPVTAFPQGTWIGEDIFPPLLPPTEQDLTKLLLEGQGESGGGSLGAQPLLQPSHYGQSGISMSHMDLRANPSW
Briefly: STAT6 Reporter Luciferase Assay (IL-13 stimulated HaCaT keratinocyte NanoLuc reporter cells). Type of assay: cell-based. The conditions noted are these: IL-13 stimulated HaCaT STAT6 NanoLuc reporter cells; read-out: Reporter EC50. Summed up: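 Luminescence from a NanoLuc reporter driven by the STAT6-responsive IL-13Ra2 promoter in HaCaT keratinocytes serves as the read-out. Compounds are given 2 h before a 4 h stimulation with 0.12 nM IL-13.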

The mark [3] stands for this setting: Homo sapiens, 48 h, IL-13 stimulated.
[4] abbreviates: Homo sapiens, 48 h, 10 ng/mL IL13, 48 hours.

In general, IC50 refers to the concentration at which inhibition is half-maximal. Low readings indicate greater potency in that assay, high ones weaker potency in that assay. What is called EC50 is the midpoint of the concentration-response curve.

Regarding `CC1CN(c2ccc(C(=O)N(C)C)cn2)Cc2c(C(=O)NCc3ccc(NC(=O)N(C)C)cc3)nn(C3COC3)c21` (racemic) [Example 321, rac-(R)-5-(5-(dimethylcarbamoyl)pyridin-2-yl)-N-(4-(3,3-dimethylureido)benzyl)-7-methyl-1-(oxetan-3-yl)-4,5,6,7-tetrahydro-1H-pyrazolo[4,3-c]pyridine-3-carboxamide], in assay [1] (setting [3]), the IC50 was found to be 22 nM. Further, the EC50 in assay [2] is 3 nM.

Take `CC(C)n1nc(C(=O)NCc2ccc(NC(=O)N(C)C)cc2)c2c1CCN(c1ccc(C3CCCO3)cn1)C2` (racemic) [Example 322, rac-(R)—N-(4-(3,3-Dimethylureido)benzyl)-1-isopropyl-5-(5-(tetrahydrofuran-2-yl)pyridin-2-yl)-4,5,6,7-tetrahydro-1H-pyrazolo[4,3-c]pyridine-3-carboxamide]: the midpoint of inhibition in assay [1] (setting [3]), the IC50, lay at 1350 nM. The EC50 in assay [2] worked out at 77 nM.

As to `CC(C)n1nc(C(=O)NCc2ccc(NC(=O)N(C)C)cc2)c2c1CCN(c1ccc(C3CCCCO3)cn1)C2` (racemic) [Example 339, rac-(R)-N-(4-(3,3-dimethylureido)benzyl)-1-isopropyl-5-(5-(tetrahydro-2H-pyran-2-yl)pyridin-2-yl)-4,5,6,7-tetrahydro-1H-pyrazolo[4,3-c]pyridine-3-carboxamide], the IC50 in assay [1] (setting [3]) is > 23100 nM. Besides, the EC50 in assay [2] was found to be 6550 nM.

Turning to `CC(C)n1nc(C(=O)NCc2ccc(NC(=O)N(C)C)cc2)c2c1CCN(c1ccc(C3CCOC3)cn1)C2` (racemic) [Example 345, rac-(R)-N-(4-(3,3-dimethylureido)benzyl)-1-isopropyl-5-(5-(tetrahydrofuran-3-yl)pyridin-2-yl)-4,5,6,7-tetrahydro-1H-pyrazolo[4,3-c]pyridine-3-carboxamide], the IC50 in assay [1] (setting [3]) was > 30000 nM. In addition, the EC50 in assay [2] was > 2630 nM.

Consider `CC(CO)n1nc(C(=O)NCc2ccc(NC(=O)N(C)C)cc2)c2c1CCN(c1ccc(C(=O)N(C)C)cn1)C2` (racemic) [Example 351, rac-(R)-5-(5-(dimethylcarbamoyl)pyridin-2-yl)-N-(4-(3,3-dimethylureido)benzyl)-1-(1-hydroxypropan-2-yl)-4,5,6,7-tetrahydro-1H-pyrazolo[4,3-c]pyridine-3-carboxamide], for which half-maximal inhibition in assay [1] (setting [3]) (IC50) required 129 nM. Further, in assay [2], the half-maximal effective concentration (EC50) was 73 nM.

Compound `CC(CC#N)n1nc(C(=O)NCc2ccc(NC(=O)N(C)C)cc2)c2c1CCN(c1ccc(C(=O)N(C)C)cn1)C2` (racemic) [Example 358, rac-(R)-1-(1-cyanopropan-2-yl)-5-(5-(dimethylcarbamoyl)pyridin-2-yl)-N-(4-(3,3-dimethylureido)benzyl)-4,5,6,7-tetrahydro-1H-pyrazolo[4,3-c]pyridine-3-carboxamide] came in with an IC50 in assay [1] (setting [3]) of 112 nM. In addition, the 50% effective concentration (EC50) in assay [2] is 51 nM.

As for `CCc1nc(C(=O)NCc2ccc(NC(=O)N(C)C)cc2)c2n1C(C)CN(c1ccc(C(=O)N(C)C)cc1)C2` (racemic) [Example 399, rac-(R)-7-(4-(dimethylcarbamoyl)phenyl)-N-(4-(3,3-dimethylureido)benzyl)-3-ethyl-5-methyl-5,6,7,8-tetrahydroimidazo[1,5-a]lpyrazine-1-carboxamide], in assay [1] (setting [3]), the IC50 stood at 9 nM. Further, in assay [2], the EC50 amounted to 2 nM.

As for `CC(C)n1nc(C(=O)NCc2ccc(NC(=O)N(C)C)cc2)c2c1C(C(F)(F)F)CN(c1ncc(C(=O)N(C)C)cn1)C2` (racemic) [Example 459, rac-(R)-5-(5-(dimethylcarbamoyl)pyrimidin-2-yl)-N-(4-(3,3-dimethylureido)benzyl)-1-isopropyl-7-(trifluoromethyl)-4,5,6,7-tetrahydro-1H-pyrazolo[4,3-c]pyridine-3-carboxamide], it took 2 nM to reach half-maximal inhibition in assay [1] (setting [3]) (IC50). In addition, the EC50 in assay [2] came out at 0.3 nM.

For the compound `CCn1nc(C(=O)NCc2ccc(NC(=O)N(C)C)cc2)c2c1C(C(F)(F)F)CN(c1ncc(C(=O)N(C)C)cn1)C2` (racemic) [Example 460, rac-(R)-5-(5-(dimethylcarbamoyl)pyrimidin-2-yl)-N-(4-(3,3-dimethylureido)benzyl)-1-ethyl-7-(trifluoromethyl)-4,5,6,7-tetrahydro-1H-pyrazolo[4,3-c]pyridine-3-carboxamide], the half-maximal inhibitory concentration (IC50) in assay [1] (setting [3]) was found to be 7 nM. In addition, in assay [2], the EC50 was 0.3 nM.

As to `CCn1nc(C(=O)NCc2ccc(C(=O)NC)cc2)c2c1C(C(F)(F)F)CN(c1ccc(C(=O)N(C)C)cn1)C2` (racemic) [Example 463, rac-(R)-5-(5-(dimethylcarbamoyl)pyridin-2-yl)-1-ethyl-N-(4-(methylcarbamoyl)benzyl)-7-(trifluoromethyl)-4,5,6,7-tetrahydro-1H-pyrazolo[4,3-c]pyridine-3-carboxamide], it took 23 nM to reach half-maximal inhibition in assay [1] (setting [3]) (IC50). The EC50 in assay [2] was 2.7 nM.

For the compound `CC(C)n1nc(C(=O)NCc2ccc(NC(=O)N(C)C)cc2)c2c1CCN(c1ccc(C3CCNC3=O)cn1)C2` (racemic) [Example 469, rac-(R)—N-(4-(3,3-Dimethylureido)benzyl)-1-isopropyl-5-(5-(2-oxopyrrolidin-3-yl)pyridin-2-yl)-4,5,6,7-tetrahydro-1H-pyrazolo[4,3-c]pyridine-3-carboxamide], the IC50 in assay [1] (IL-13 stimulated, 48 hours) is > 4160 nM. Moreover, the EC50 in assay [2] was 5110 nM.

In turn, `CC(C)n1nc(C(=O)NCc2ccc(NC(=O)N(C)C)cc2)c2c1C(O)CN(c1ccc(C(=O)N(C)C)cn1)C2` (racemic) [Example 472, rac-(R)-5-(5-(dimethylcarbamoyl)pyridin-2-yl)-N-(4-(3,3-dimethylureido)benzyl)-7-hydroxy-1-isopropyl-4,5,6,7-tetrahydro-1H-pyrazolo[4,3-c]pyridine-3-carboxamide] showed an IC50 in assay [1] (setting [3]) of 120 nM. For the same compound, the EC50 in assay [2] is 41 nM.

On to `CC(C)n1nc(C(=O)NCc2ccc(NC(=O)N(C)C)cc2)c2c1CCN(c1ccc(C3CCN(C)C3=O)cn1)C2` (racemic) [Example 505, rac-(R)-N-(4-(3,3-dimethylureido)benzyl)-1-isopropyl-5-(5-(1-methyl-2-oxopyrrolidin-3-yl)pyridin-2-yl)-4,5,6,7-tetrahydro-1H-pyrazolo[4,3-c]pyridine-3-carboxamide], for which the IC50 in assay [1] (setting [3]) is > 30000 nM. In addition, the EC50 in assay [2] was found to be 7900 nM.

`CC1c2c(C(=O)NCc3ccc(NC(=O)N(C)C)cc3)nn(C(C)C)c2[C@@H](C)CN1c1ccc(C(=O)N(C)C)cn1` (mixture of isomers) [Example 524, (4RS,7S)-5-(5-(Dimethylcarbamoyl)pyridin-2-yl)-N-(4-(3,3-dimethylureido)benzyl)-1-isopropyl-4,7-dimethyl-4,5,6,7-tetrahydro-1H-pyrazolo[4,3-c]pyridine-3-carboxamide]: the 50% inhibitory concentration (IC50) in assay [1] (setting [3]) was 6 nM. Moreover, in assay [2], the EC50 is 0.1 nM.

On to `CCn1nc(C(=O)NCc2ccc(NC(=O)N(C)C)cc2)c2c1C(C)CN(c1ncc(C(=O)N(C)C)cn1)C2` (racemic) [Example 531, rac-(R)-5-(5-(dimethylcarbamoyl)pyrimidin-2-yl)-N-(4-(3,3-dimethylureido)benzyl)-1-ethyl-7-methyl-4,5,6,7-tetrahydro-1H-pyrazolo[4,3-c]pyridine-3-carboxamide], for which the IC50 in assay [1] (setting [4]) was 14 nM. The EC50 in assay [2] came out at 1 nM.

As to `CC1CN(c2ncc(C(=O)N(C)C)cn2)Cc2c(C(=O)NCc3ccc(NC(=O)N(C)C)cc3)nn(C(C)C)c21` (racemic) [Example 532, rac-(R)-5-(5-(dimethylcarbamoyl)pyrimidin-2-yl)-N-(4-(3,3-dimethylureido)benzyl)-1-isopropyl-7-methyl-4,5,6,7-tetrahydro-1H-pyrazolo[4,3-c]pyridine-3-carboxamide], the IC50 in assay [1] (setting [4]) is 4 nM. Besides, the EC50 in assay [2] came out at 1 nM.

For the compound `CC(C)c1nc(C(=O)NCc2ccc(NC(=O)N(C)C)cc2)c2n1[C@@H](C)CN(c1ccc(C(=O)N(C)C)cc1)C2` (racemic) [Example 537, rac-(R)-7-(4-(Dimethylcarbamoyl)phenyl)-N-(4-(3,3-dimethylureido)benzyl)-3-isopropyl-5-methyl-5,6,7,8-tetrahydroimidazo[1,5-a]pyrazine-1-carboxamide], the IC50 in assay [1] (setting [4]) is 10 nM. Besides, the EC50 in assay [2] is 1 nM.
